Where a name gives a salt, the structure may show the parent alone. Active and inactive are the calls of the source. For most assays here, no stated cut-off is given here; in the data, actives have a measured Kd and inactives only a lower limit.

Kd data for 15 molecules are collected here from ChEMBL document CHEMBL3991601, “The target landscape of clinical kinase drugs” (Science, 2017).

The target of experiment [1] is Cyclin-dependent kinase 17 (Homo sapiens, UniProt Q00537).
The target in experiment [2] is STE20-like serine/threonine-protein kinase (Homo sapiens, UniProt Q9H2G2).
For experiment [3], the target named is T1, DNA replication licensing factor MCM4 (Homo sapiens, UniProt P33991).
T1 sequence (P33991 whole entry): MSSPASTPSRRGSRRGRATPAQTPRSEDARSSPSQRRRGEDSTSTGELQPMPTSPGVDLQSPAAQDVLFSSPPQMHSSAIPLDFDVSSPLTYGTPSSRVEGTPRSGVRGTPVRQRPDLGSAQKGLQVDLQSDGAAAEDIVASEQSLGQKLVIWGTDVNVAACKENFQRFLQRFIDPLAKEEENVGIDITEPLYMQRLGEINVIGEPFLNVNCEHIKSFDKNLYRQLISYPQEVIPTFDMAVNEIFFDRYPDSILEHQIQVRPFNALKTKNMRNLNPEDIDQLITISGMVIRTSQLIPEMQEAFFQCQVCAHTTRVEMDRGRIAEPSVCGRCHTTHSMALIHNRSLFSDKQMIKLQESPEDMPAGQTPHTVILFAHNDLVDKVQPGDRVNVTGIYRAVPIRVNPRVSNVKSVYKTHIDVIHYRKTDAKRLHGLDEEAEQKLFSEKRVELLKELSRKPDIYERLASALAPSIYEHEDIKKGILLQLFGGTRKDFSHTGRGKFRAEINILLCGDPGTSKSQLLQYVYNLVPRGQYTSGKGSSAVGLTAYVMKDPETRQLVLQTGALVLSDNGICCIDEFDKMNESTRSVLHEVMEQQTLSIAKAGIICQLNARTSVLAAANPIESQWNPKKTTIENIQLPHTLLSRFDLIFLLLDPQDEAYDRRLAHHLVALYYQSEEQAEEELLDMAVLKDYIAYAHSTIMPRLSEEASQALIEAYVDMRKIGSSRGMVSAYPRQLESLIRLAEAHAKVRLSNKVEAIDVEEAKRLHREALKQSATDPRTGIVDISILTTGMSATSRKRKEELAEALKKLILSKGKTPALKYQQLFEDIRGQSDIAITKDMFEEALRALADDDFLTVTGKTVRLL

Another experiment has as its target T2, Pyridoxal kinase (Homo sapiens, UniProt O00764).
T2 sequence (O00764 whole entry): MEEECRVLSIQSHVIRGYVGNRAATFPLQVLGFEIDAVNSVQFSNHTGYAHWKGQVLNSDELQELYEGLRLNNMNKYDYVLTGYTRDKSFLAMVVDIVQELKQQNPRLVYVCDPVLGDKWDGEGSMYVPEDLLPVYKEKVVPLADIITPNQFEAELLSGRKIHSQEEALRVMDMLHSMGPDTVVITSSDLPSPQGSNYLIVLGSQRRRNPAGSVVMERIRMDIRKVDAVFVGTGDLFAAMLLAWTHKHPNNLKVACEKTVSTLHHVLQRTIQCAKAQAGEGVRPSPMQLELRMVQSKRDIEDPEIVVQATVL

Experiment [4] deals with T3, Phosphatidylinositol 5-phosphate 4-kinase type-2 gamma (Homo sapiens, UniProt Q8TBX8).
T3 sequence (Q8TBX8 whole entry): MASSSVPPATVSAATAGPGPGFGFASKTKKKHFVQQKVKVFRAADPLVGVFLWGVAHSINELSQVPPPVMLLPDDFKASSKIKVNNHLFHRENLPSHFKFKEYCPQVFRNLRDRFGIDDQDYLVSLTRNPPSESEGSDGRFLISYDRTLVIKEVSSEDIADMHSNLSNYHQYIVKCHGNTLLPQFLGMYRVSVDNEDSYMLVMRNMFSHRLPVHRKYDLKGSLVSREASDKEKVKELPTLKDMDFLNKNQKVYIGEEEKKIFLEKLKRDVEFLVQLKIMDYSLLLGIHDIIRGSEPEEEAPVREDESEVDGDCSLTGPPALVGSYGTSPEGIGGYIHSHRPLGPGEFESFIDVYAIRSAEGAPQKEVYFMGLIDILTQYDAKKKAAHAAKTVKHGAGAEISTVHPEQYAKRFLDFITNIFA

For experiment [5], the target named is Calcium/calmodulin-dependent protein kinase type II subunit gamma (Homo sapiens, UniProt Q13555).
Experiment [6] concerns the target T4, Acyl-CoA dehydrogenase family member 11 (Homo sapiens, UniProt Q709F0).
T4 sequence (Q709F0 whole entry): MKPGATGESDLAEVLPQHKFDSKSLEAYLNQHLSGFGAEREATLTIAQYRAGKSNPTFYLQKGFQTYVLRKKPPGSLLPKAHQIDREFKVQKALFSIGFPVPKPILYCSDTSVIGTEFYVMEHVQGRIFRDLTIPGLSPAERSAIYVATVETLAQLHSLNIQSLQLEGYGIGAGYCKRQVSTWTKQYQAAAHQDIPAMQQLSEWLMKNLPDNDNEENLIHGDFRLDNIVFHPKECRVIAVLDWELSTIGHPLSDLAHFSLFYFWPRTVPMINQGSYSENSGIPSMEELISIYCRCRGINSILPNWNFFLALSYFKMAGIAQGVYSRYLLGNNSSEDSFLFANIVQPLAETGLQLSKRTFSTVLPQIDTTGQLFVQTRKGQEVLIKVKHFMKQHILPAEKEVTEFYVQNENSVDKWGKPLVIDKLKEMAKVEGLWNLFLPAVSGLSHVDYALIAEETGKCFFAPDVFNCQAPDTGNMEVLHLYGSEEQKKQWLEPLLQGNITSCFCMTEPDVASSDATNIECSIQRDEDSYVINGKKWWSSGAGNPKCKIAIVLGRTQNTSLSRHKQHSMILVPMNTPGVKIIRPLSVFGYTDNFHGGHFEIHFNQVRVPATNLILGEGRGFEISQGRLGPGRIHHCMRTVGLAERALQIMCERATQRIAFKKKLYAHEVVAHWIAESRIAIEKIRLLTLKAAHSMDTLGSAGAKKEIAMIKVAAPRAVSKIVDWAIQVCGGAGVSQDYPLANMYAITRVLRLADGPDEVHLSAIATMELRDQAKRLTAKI

Chain of STE20-like serine/threonine-protein kinase (Q9H2G2 whole entry): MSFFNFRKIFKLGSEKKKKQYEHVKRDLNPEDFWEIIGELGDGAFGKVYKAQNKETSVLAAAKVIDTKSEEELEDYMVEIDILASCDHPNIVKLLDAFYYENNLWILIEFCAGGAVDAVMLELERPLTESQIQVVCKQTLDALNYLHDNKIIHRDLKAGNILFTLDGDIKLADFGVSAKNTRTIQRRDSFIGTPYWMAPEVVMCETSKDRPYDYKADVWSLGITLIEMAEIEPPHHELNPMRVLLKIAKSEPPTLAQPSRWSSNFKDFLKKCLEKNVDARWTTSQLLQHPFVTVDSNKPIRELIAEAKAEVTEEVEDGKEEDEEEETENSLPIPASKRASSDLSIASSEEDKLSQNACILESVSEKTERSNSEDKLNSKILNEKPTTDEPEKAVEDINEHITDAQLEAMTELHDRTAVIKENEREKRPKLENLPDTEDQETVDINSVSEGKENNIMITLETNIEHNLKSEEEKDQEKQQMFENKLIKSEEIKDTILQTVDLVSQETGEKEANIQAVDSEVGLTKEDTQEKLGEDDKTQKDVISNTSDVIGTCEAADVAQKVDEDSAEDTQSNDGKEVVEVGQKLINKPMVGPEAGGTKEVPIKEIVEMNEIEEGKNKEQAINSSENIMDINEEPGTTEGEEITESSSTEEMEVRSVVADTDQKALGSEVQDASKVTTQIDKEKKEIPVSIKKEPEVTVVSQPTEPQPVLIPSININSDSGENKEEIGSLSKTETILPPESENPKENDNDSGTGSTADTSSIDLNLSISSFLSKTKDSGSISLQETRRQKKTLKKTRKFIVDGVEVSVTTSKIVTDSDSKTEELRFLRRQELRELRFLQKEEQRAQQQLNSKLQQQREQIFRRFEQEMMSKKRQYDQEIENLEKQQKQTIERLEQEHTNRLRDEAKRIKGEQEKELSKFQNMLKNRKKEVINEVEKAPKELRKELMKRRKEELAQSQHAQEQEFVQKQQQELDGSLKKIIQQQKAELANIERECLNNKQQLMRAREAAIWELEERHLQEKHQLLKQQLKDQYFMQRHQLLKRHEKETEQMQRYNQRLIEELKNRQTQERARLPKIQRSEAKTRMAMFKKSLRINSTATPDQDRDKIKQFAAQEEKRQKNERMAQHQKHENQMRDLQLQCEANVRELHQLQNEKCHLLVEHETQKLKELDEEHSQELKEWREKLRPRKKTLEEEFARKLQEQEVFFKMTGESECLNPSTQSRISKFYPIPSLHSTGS
Chain of Cyclin-dependent kinase 17 (Q00537 whole entry): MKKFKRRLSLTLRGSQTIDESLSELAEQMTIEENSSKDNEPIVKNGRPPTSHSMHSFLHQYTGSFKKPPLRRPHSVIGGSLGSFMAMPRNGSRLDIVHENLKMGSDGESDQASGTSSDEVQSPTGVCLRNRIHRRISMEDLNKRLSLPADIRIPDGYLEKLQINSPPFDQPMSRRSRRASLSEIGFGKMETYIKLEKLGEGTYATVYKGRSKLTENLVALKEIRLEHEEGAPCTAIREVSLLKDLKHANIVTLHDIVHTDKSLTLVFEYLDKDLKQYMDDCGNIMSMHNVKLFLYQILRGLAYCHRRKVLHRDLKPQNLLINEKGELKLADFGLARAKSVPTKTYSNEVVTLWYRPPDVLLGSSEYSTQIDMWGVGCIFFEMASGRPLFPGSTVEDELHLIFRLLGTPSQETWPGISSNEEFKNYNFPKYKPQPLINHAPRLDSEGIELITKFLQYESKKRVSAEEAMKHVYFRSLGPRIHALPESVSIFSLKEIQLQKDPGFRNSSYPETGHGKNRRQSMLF
Chain of Calcium/calmodulin-dependent protein kinase type II subunit gamma (Q13555 whole entry): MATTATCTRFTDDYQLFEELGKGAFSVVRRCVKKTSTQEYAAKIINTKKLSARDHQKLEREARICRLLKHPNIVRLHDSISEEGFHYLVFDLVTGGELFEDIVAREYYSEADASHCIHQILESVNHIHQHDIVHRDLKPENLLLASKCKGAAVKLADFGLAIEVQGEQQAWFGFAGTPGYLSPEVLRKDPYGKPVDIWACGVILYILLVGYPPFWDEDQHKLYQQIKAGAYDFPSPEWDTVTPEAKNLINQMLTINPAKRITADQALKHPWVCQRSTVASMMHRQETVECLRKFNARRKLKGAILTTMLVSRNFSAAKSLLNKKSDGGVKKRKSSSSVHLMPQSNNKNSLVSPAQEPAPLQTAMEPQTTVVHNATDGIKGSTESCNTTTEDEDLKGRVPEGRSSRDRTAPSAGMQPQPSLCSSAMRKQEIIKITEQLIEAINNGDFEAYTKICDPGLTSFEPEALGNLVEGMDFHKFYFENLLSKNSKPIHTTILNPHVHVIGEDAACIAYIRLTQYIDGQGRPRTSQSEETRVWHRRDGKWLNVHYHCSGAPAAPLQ

Consider `COc1cc2ncnc(Oc3cccc(NC(=O)Nc4cc(C(C)(C)C(F)(F)F)on4)c3)c2cc1OC` [CEP-32496], for which the Kd (in experiment [1]; in experiment [2]; in experiment [3]; on Pyridoxal kinase; in experiment [4]; in experiment [5]) was > 30 µM (inactive) throughout. In addition, the Kd (as a rule, a measure of binding affinity in units of concentration) in experiment [6] was > 30 µM (inactive).
On to `Cc1cc(Nc2ncc(Cl)c(Nc3ccccc3S(=O)(=O)C(C)C)n2)c(OC(C)C)cc1C1CCNCC1` [CERITINIB], for which the Kd (in experiment [1]; in experiment [2]; in experiment [3]; on Pyridoxal kinase; in experiment [4]; in experiment [5]) was > 30 µM (inactive) each time. In addition, the Kd in experiment [6] was > 30 µM (inactive).
For `COc1c(OCCCN2CCOCC2)ccc2c1N=C(NC(=O)c1cnc(N)nc1)N1CCN=C21` [COPANLISIB], the Kd (in experiment [1]; in experiment [2]; in experiment [3]; at Pyridoxal kinase; in experiment [4]; in experiment [5]) was > 30 µM (inactive) in each case. For the same molecule, the Kd in experiment [6] was > 30 µM (inactive).
As for `COCC(=O)NC/C=C/c1ccc2ncnc(Nc3ccc(Oc4ccc(C)nc4)c(C)c3)c2c1` [CP-724714], the Kd (in experiment [1]; in experiment [2]; in experiment [3]; at Pyridoxal kinase; in experiment [4]; in experiment [5]) was > 30 µM (inactive) each time. The Kd in experiment [6] is > 30 µM (inactive).
For the molecule `C#Cc1cccc(Nc2ncnc3cc(OC)c(OCCCCCCC(=O)NO)cc23)c1` [CUDC-101], the Kd (in experiment [1]; in experiment [2]; in experiment [3]; on Pyridoxal kinase; in experiment [4]; in experiment [5]) was > 30 µM (inactive) in each case. The Kd in experiment [6] was > 30 µM (inactive).
On to `CCS(=O)(=O)N1CCN(c2ccc(Nc3ncc(C(N)=O)c(NC4CC4)n3)cc2)CC1` [Cerdulatinib Hydrochloride], for which the Kd (in experiment [1]; in experiment [2]; in experiment [3]; on Pyridoxal kinase; in experiment [4]; in experiment [5]) was > 30 µM (inactive) each time. Moreover, the Kd in experiment [6] was > 30 µM (inactive).
Take `CC(C)(C)c1nc(-c2cccc(NS(=O)(=O)c3c(F)cccc3F)c2F)c(-c2ccnc(N)n2)s1` [DABRAFENIB]: the Kd is 0.036 µM (active) in experiment [1]; > 30 µM (inactive) in experiment [2]; > 30 µM (inactive) in experiment [3]; > 30 µM (inactive) on Pyridoxal kinase; > 30 µM (inactive) in experiment [4]; > 30 µM (inactive) in experiment [5]. Moreover, the Kd in experiment [6] was > 30 µM (inactive).
In the case of `O=C(Nc1nc2cccc(-c3ccc(CN4CCS(=O)(=O)CC4)cc3)n2n1)C1CC1` [FILGOTINIB], the Kd in experiment [1] is > 30 µM (inactive); in experiment [2], 9.27 µM (active); in experiment [3] it was > 30 µM (inactive); on Pyridoxal kinase, > 30 µM (inactive); in experiment [4], > 30 µM (inactive); in experiment [5], > 30 µM (inactive). The Kd in experiment [6] is > 30 µM (inactive).
Take `Cc1cccc(-c2nn3c(c2-c2ccnc4ccc(C(N)=O)cc24)CCC3)n1` [GALUNISERTIB]: the Kd (in experiment [1]; in experiment [2]; in experiment [3]; on Pyridoxal kinase; in experiment [4]; in experiment [5]) was > 30 µM (inactive) throughout. Further, the Kd in experiment [6] is > 30 µM (inactive).
As for `O=C(Nc1cc(C(F)(F)F)cc(C(F)(F)F)c1)c1cc(Cl)ccc1O` [IMD-0354], the Kd (in experiment [1]; in experiment [2]; in experiment [3]; at Pyridoxal kinase; in experiment [4]; in experiment [5]) was > 30 µM (inactive) throughout. Besides, the Kd in experiment [6] was > 30 µM (inactive).
As to `CNC(=O)c1cccc2cc(Oc3ccnc4cc(OCC5(N)CC5)c(OC)cc34)ccc12` [LUCITANIB], the Kd in experiment [1] is > 30 µM (inactive); in experiment [2], > 30 µM (inactive); in experiment [3], > 30 µM (inactive); on Pyridoxal kinase, 16.4 µM (active); in experiment [4], > 30 µM (inactive); in experiment [5], > 30 µM (inactive). In addition, the Kd in experiment [6] is > 30 µM (inactive).
As to `NC1(c2ccc(-c3nc4ccn5c(=O)[nH]nc5c4cc3-c3ccccc3)cc2)CCC1` [MK-2206], the Kd (in experiment [1]; in experiment [2]; in experiment [3]; at Pyridoxal kinase; in experiment [4]; in experiment [5]) was > 30 µM (inactive) each time. Moreover, the Kd in experiment [6] was > 30 µM (inactive).
Consider `Cn1cc(-c2cnc3ccc4ccc(CS(=O)(=O)NCc5ccccn5)cc4c(=O)c3c2)cn1` [MK-8033], for which the Kd (in experiment [1]; in experiment [2]; in experiment [3]; on Pyridoxal kinase; in experiment [4]; in experiment [5]) was > 30 µM (inactive) throughout. Moreover, the Kd in experiment [6] was > 30 µM (inactive).
In the case of `FC(F)(F)c1ccc(/C=C/c2nc(COc3ccc(CCCCn4ccnn4)cc3)co2)cc1` [MUBRITINIB], the Kd (in experiment [1]; in experiment [2]; in experiment [3]; at Pyridoxal kinase; in experiment [4]; in experiment [5]) was > 30 µM (inactive) each time. Moreover, the Kd in experiment [6] is > 30 µM (inactive).
Turning to `COc1ncc(-c2ccc3nccc(-c4ccnnc4)c3c2)cc1NS(=O)(=O)c1ccc(F)cc1F` [OMIPALISIB], the Kd in experiment [1] was > 30 µM (inactive); in experiment [2], > 30 µM (inactive); in experiment [3] it was > 30 µM (inactive); on Pyridoxal kinase, > 30 µM (inactive); in experiment [4], 1.37 µM (active); in experiment [5] it was > 30 µM (inactive). In addition, the Kd in experiment [6] is > 30 µM (inactive).
